Measurements taken from patent US20240150345A1, “GCN2 MODULATING COMPOUNDS AND USES THEREOF” (HiberCell, Inc., priority 2021, published 2024).

biological target: T1, GCN2 (Homo sapiens, UniProt Q9P2K8); assay: TR-FRET biochemical assay for inhibition of GCN2 activity; conditions: 2 nM GCN2, 100 nM GFP-eIF2α, 150 μM ATP, 1.5 hours at 25° C.
T1 construct: purchased Carma Biosciences (so in the source)
Protocol: Exemplary compounds from the above Examples were tested for ability to inhibit GCN2 activity using a time resolved fluorescence energy transfer (TR-FRET) assay. Assay procedures and results are described below for Examples 12-105.
GCN2 protein was obtained from Carma Biosciences (cat #05-153). The protein was diluted in assay buffer (ThermoFisher Scientific, #PV6135), 2 mM dithiothreitol (DTT), to obtain a final concentration of 2 nM and 5 μL was plated in a 384-well white assay plate. Test compounds were serially diluted to 11 concentrations by 3-fold dilution in DMS0 and 10 nL of stock was plated into 384 well white assay plate. DMS0 was used as a vehicle control. GFP-eIF2α protein was obtained from ThermoFisher (cat #PV4809). The protein was diluted in assay buffer to a 2× concentration of 200 nM along with 300 μM ATP (final concentration of 100 nM GFP-eIF2α and 150 μM ATP) in the presence of 2 mM DTT and a […] was added to each well containing the GCN2 protein and test compound. The plate was incubated in the dark at 25° C. for 1.5 hours, shaking at 1250 rpm. Tb-anti P-eIF2α (ThermoFisher cat #PV4815) was diluted to a to a concentration of 1 nM in TR-FRET Dilution Buffer (ThermoFisher cat #PV3574). 10 μL of the Tb-anti P-eIF2a solution was added to the TR-FRET reaction. The plate was incubated in the dark for 2 h at 25° C. shaking at 600 rpm. The FRET signal from the plate was read on a Envision (PerkinElmer) plate reader: • Label 1: Excitation: 340 nm, bandwidth 30 nm; Emission: 495 nm, bandwidth 10 nm. Lag time: 100 μsec. Integration time: 400 μsec. Flashes: 30. • Label 2: Excitation: 340 nm, bandwidth 30 nm; Emission: 520 nm, bandwidth 25 nm. Lag time: 100 μsec. Integration time: 400 μsec. Flashes: 30
The data were analyzed using GraphPad Prism employing a 4-parameter sigmoidal curve fit.

T1 sequence (Q9P2K8 whole entry): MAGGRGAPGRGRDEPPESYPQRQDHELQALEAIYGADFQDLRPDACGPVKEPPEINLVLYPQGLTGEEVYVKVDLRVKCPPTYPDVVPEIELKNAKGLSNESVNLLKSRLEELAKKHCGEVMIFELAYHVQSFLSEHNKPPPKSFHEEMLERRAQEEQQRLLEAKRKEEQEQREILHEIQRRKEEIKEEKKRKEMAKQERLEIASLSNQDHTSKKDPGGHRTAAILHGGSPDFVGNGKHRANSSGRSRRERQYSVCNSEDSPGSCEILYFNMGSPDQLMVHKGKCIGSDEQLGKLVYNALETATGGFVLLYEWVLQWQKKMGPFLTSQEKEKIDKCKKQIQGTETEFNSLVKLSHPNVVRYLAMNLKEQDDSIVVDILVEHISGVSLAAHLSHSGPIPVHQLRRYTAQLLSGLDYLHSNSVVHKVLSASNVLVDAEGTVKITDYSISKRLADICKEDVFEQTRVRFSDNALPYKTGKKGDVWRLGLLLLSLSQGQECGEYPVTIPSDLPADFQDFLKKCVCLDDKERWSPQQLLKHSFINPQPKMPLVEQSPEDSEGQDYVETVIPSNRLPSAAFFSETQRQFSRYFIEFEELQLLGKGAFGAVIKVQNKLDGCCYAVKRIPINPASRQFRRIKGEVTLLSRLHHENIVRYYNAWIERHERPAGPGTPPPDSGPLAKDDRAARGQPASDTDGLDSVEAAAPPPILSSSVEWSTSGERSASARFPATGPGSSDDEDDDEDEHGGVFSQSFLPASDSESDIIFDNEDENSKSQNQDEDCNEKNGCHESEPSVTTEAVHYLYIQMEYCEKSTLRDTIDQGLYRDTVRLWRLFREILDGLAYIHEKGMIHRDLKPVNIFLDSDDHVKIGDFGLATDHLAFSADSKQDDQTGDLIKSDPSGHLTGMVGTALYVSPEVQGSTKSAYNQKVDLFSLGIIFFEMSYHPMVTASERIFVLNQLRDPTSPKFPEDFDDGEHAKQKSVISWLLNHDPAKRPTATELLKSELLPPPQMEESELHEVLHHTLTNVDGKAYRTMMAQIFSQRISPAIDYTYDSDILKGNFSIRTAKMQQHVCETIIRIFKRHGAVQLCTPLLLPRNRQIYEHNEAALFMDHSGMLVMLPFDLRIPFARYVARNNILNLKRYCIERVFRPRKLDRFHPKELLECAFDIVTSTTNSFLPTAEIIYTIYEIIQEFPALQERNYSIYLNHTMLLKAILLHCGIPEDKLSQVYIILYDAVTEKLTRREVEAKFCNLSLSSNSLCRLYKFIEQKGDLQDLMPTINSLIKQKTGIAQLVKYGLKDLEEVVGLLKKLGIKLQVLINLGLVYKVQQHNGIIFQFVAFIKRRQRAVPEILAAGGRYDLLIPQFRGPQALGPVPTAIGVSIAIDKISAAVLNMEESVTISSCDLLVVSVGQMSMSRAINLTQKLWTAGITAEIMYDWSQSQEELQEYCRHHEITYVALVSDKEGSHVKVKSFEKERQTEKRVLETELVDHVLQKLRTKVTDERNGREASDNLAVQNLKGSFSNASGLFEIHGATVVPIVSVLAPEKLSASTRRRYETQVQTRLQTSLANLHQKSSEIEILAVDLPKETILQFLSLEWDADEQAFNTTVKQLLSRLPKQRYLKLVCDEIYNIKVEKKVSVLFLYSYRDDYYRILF

First: COc1ncc(F)cc1S(=O)(=O)Nc1ncc(F)c(COc2cnc3[nH]nc(C)c3c2)c1Cl [Compound 66, N-[3-chloro-5-fluoro-4-[([3-methyl-1H-pyrazolo[3,4-b]pyridin-5-yl]oxy)methyl]pyridin-2-yl]-5-fluoro-2-methoxypyridine-3-sulfonamide]
Second: COc1ncc(F)cc1S(=O)(=O)Nc1ccc(F)c(COc2cnc3[nH]nc(C)c3c2)c1C#N [Compound 62, N-[2-cyano-4-fluoro-3-[([3-methyl-1H-pyrazolo[3,4-b]pyridin-5-yl]oxy)methyl]phenyl]-5-fluoro-2-methoxypyridine-3-sulfonamide]
The IC50 of the first is lower: under 0.05 µM for the first, 0.05 to 0.5 µM for the second. The first is the more potent here.

`COc1ncc(Cl)cc1S(=O)(=O)Nc1ccc(F)c(COc2cnc3[nH]ncc3c2C#N)c1F` [Compound 28, 5-chloro-N-[3-[([4-cyano-1H-pyrazolo[3,4-b]pyridin-5-yl]oxy)methyl]-2,4-difluorophenyl]-2-methoxypyridine-3-sulfonamide] and `CCc1n[nH]c2ncc(OCc3c(F)ccc(NS(=O)(=O)c4cc(Cl)cnc4OC)c3F)cc12` [Compound 40, 5-chloro-N-[3-[([3-ethyl-1H-pyrazolo[3,4-b]pyridin-5-yl]oxy)methyl]-2,4-difluorophenyl]-2-methoxypyridine-3-sulfonamide] cannot be ordered by IC50: under 0.05 µM for the first, under 0.05 µM for the second.

Compared with `Cc1ncc(F)cc1S(=O)(=O)Nc1ccc(F)c(OCc2cnc3[nH]nc(C)c3c2)c1F` [Compound 51, N-[2,4-difluoro-3-([3-methyl-1H-pyrazolo[3,4-b]pyridin-5-yl]methoxy)phenyl]-5-fluoro-2-methylpyridine-3-sulfonamide], `COc1ncc(Cl)cc1S(=O)(=O)Nc1ccc(F)c(OCc2cnc3[nH]nc(C)c3c2)c1F` [Compound 46, 5-chloro-N-[2,4-difluoro-3-([3-methyl-1H-pyrazolo[3,4-b]pyridin-5-yl]methoxy)phenyl]-2-methoxypyridine-3-sulfonamide] is lower in IC50: 0.05 to 0.5 µM for the first, under 0.05 µM for the second.

`COc1ncc(Cl)cc1S(=O)(=O)Nc1ccnc(COc2cnc3[nH]nc(C)c3c2)c1F` [Compound 64, 5-chloro-N-[3-fluoro-2-[([3-methyl-1H-pyrazolo[3,4-b]pyridin-5-yl]oxy)methyl]pyridin-4-yl]-2-methoxypyridine-3-sulfonamide] and `COc1ncc(F)cc1S(=O)(=O)Nc1ccc(F)c(COc2cnc3[nH]nc(C#N)c3c2)c1F` [Compound 73, N-(3-(((3-cyano-1H-pyrazolo[3,4-b]pyridin-5-yl)oxy)methyl)-2,4-difluorophenyl)-5-fluoro-2-methoxypyridine-3-sulfonamide] cannot be ordered by IC50: under 0.05 µM for the first, under 0.05 µM for the second.

First: COc1ncc(Cl)cc1S(=O)(=O)Nc1ccc(F)c(C(C)Oc2cnc3[nH]ncc3c2)c1F (centres unmarked) [Compound 25, 5-chloro-N-[2,4-difluoro-3-(1-[1H-pyrazolo[3,4-b]pyridin-5-yloxy]ethyl)phenyl]-2-methoxypyridine-3-sulfonamide]
Second: COc1ncc(Cl)cc1S(=O)(=O)Nc1ccc(F)c(CNc2cnc3[nH]ncc3c2)c1F [Compound 3, 5-chloro-N-[2,4-difluoro-3-([1H-pyrazolo[3,4-b]pyridin-5-ylamino]methyl)phenyl]-2-methoxypyridine-3-sulfonamide]
The IC50 of the first is higher: 0.5 to 1 µM for the first, 0.05 to 0.5 µM for the second.

`Cc1ncc(F)cc1S(=O)(=O)Nc1ccc(F)c(COc2cnc3[nH]ncc3c2)c1F` [Compound 30, N-(3-(((1H-pyrazolo[3,4-b]pyridin-5-yl)oxy)methyl)-2,4-difluorophenyl)-5-fluoro-2-methylpyridine-3-sulfonamide] and `Cc1ncc(F)cc1S(=O)(=O)Nc1ccc(F)c(CCc2cnc3[nH]ncc3c2)c1F` [Compound 9, N-(3-(2-(1H-pyrazolo[3,4-b]pyridin-5-yl)ethyl)-2,4-difluorophenyl)-5-fluoro-2-methylpyridine-3-sulfonamide] cannot be ordered by IC50: under 0.05 µM for the first, under 0.05 µM for the second.

`COc1ncc(Cl)cc1S(=O)(=O)Nc1ccc(F)c(CCc2cnc3cnn(C(C)C)c3c2)c1F` [Compound 35, 5-chloro-N-[2,4-difluoro-3-(2-[1-isopropylpyrazolo[4,3-b]pyridin-6-yl]ethyl)phenyl]-2-methoxypyridine-3-sulfonamide] and `COc1ncc(Cl)cc1S(=O)(=O)Nc1ccc(F)c(CCc2cnc3cn(C)nc3c2)c1F` [Compound 17, 5-chloro-N-[2,4-difluoro-3-(2-[2-methylpyrazolo[4,3-b]pyridin-6-yl]ethyl)phenyl]-2-methoxypyridine-3-sulfonamide] cannot be ordered by IC50: under 0.05 µM for the first, under 0.05 µM for the second.

`COc1ncc(F)cc1S(=O)(=O)Nc1ccc(F)c(COc2cnc3cnn(C)c3c2)c1F` [Compound 43, N-[2,4-difluoro-3-[([1-methylpyrazolo[4,3-b]pyridin-6-yl]oxy)methyl]phenyl]-5-fluoro-2-methoxypyridine-3-sulfonamide] and `COc1ncc(F)cc1S(=O)(=O)Nc1ccc(F)c(COc2cnn3cnc(C(F)(F)F)c3c2)c1F` [Compound 83, N-[2,4-difluoro-3-([[5-(trifluoromethyl)imidazo[1,5-b]pyridazin-3-yl]oxy]methyl)phenyl]-5-fluoro-2-methoxypyridine-3-sulfonamide] cannot be ordered by IC50: under 0.05 µM for the first, under 0.05 µM for the second.

`COc1ncc(F)cc1S(=O)(=O)Nc1ccc(F)c(CCc2cnc3[nH]ncc3c2)c1F` [Compound 15, N-[2,4-difluoro-3-(2-[1H-pyrazolo[3,4-b]pyridin-5-yl]ethyl)phenyl]-5-fluoro-2-methoxypyridine-3-sulfonamide] and `COc1ncc(Cl)cc1S(=O)(=O)Nc1ccc(F)c(CCc2cnc3[nH]ncc3c2)c1F` [Compound 7, 5-chloro-N-[2,4-difluoro-3-(2-[1H-pyrazolo[3,4-b]pyridin-5-yl]ethyl)phenyl]-2-methoxypyridine-3-sulfonamide] cannot be ordered by IC50: under 0.05 µM for the first, under 0.05 µM for the second.

`CCc1n[nH]c2ncc(OCc3c(F)ccc(NS(=O)(=O)c4cc(F)cnc4C)c3F)cc12` [Compound 47, N-[3-[([3-ethyl-1H-pyrazolo[3,4-b]pyridin-5-yl]oxy)methyl]-2,4-difluorophenyl]-5-fluoro-2-methylpyridine-3-sulfonamide] and `COc1ncc(F)cc1S(=O)(=O)Nc1ccc(F)c(COc2cnc3[nH]nc(C(F)(F)F)c3c2)c1F` [Compound 44, N-[2,4-difluoro-3-([[3-(trifluoromethyl)-1H-pyrazolo[3,4-b]pyridin-5-yl]oxy]methyl)phenyl]-5-fluoro-2-methoxypyridine-3-sulfonamide] cannot be ordered by IC50: under 0.05 µM for the first, under 0.05 µM for the second.

First: COc1ncc(F)cc1S(=O)(=O)Nc1ccc(F)c(CCc2cnc3cn(C(C)C)nc3c2)c1F [Compound 37, N-[2,4-difluoro-3-(2-[2-isopropylpyrazolo[4,3-b]pyridin-6-yl]ethyl)phenyl]-5-fluoro-2-methoxypyridine-3-sulfonamide]
Second: COc1ncc(Cl)cc1S(=O)(=O)Nc1ccc(F)c(CCc2cnc3[nH]ccc3c2)c1F [Compound 12, 5-chloro-N-[2,4-difluoro-3-(2-[1H-pyrrolo[2,3-b]pyridin-5-yl]ethyl)phenyl]-2-methoxypyridine-3-sulfonamide]
The IC50 of the first is higher: 0.05 to 0.5 µM for the first, under 0.05 µM for the second.

In the case of `COc1ncc(F)cc1S(=O)(=O)Nc1ccc(F)c(COc2cnc3[nH]nc(C)c3c2N2CCCCC2)c1F` [Compound 94, N-(2,4-difluoro-3-(((3-methyl-4-(piperidin-1-yl)-1H-pyrazolo[3,4-b]pyridin-5-yl)oxy)methyl)phenyl)-5-fluoro-2-methoxypyridine-3-sulfonamide], the IC50 is reported as 0.05 to 0.5 µM.
